Measured values as given in EPA's ToxValDB 9.5.
Several values for one entry are separate records, joined by “and”; a condition that tells them apart may be missing. Equal entries are not always repeated. Blank lines part the entries; values can stand above or below the compound they belong to.

Experiments:
Mus musculus [1] = conditions: oral
Oryctolagus sp. = conditions: acute
Rattus norvegicus [2] = system: Rattus norvegicus
Rattus norvegicus [3] = experiment: LD100; higher = less toxic; conditions: acute; oral
Cavia porcellus [4] = conditions: acute, oral, Guinea Pig
Mus musculus [5] = conditions: oral; remark: listed apart in the source
Mus musculus [6] = conditions: chronic, oral, M/F
Homo sapiens [7] = conditions: clinical, oral, diet
Homo sapiens [8] = conditions: clinical; oral; M/F; Decreased respiratory function
Cavia porcellus [9] = conditions: acute, duration: 1 days, oral, gavage, M, Guinea Pig
Rattus norvegicus [10] = conditions: short-term; duration: 3 days; injection; subcutaneous; F; Crj:CD; uterus: uterine dry weight (absolute)
Rattus norvegicus [11] = conditions: uterotrophic; duration: 3 days; injection; subcutaneous; Active
Neovison sp. = conditions: repeat dose other; oral; Mink
Rattus norvegicus [12] = conditions: repeat dose other; oral
[13] = short-term, duration: 11 days, diet, B6C3F1
[14] = subchronic, duration: 3 months, gavage, B6C3F1
[15] = short-term, duration: 9 days, oral, gavage, Fischer 344
[16] = subchronic, duration: 3 months, oral, diet, Wistar
[17] = subchronic, duration: 3 months, oral, gavage, Fischer 344

SMILES: CC(O)C(=O)O (stereo unspecified) [Lactic acid]
NOAEL (Mus musculus [1]; reproduction developmental, duration: 10 days, gavage, CD1, generation: F1): ≥ 570 mg/kg-day
NOAEL (Mus musculus [1]; reproduction developmental, duration: 10 days, gavage, F, CD1): ≥ 570 mg/kg-day
LD50 (Oryctolagus sp.; dermal, New Zealand): > 2000 mg/kg
LC50 (Rattus norvegicus [2]; acute, Inhalation, Fischer 344): > 7.94 µg/mL
LOAEL (Rattus norvegicus [2]; subchronic, duration: 13 weeks, dermal, F, Sprague-Dawley): 886 mg/kg-day
LD100 (Rattus norvegicus [3]): 11200 mg/kg

SMILES: CCCCC(CC)CO (stereo unspecified) [2-Ethyl-1-hexanol]
LD50 (Cavia porcellus [4]): ≥ 1220 mg/kg and ≤ 2820 mg/kg
LD50 (Cavia porcellus [4]; gavage): 600 mg/kg
NOAEL (Mus musculus [1]; developmental, duration: 18 days, diet, CD1): > 191 mg/kg-day
NOAEL (% diet) (Mus musculus [1]; repeat dose other, diet, B6C3F1): ≥ 0.44 and ≤ 0.66
NOAEL (Mus musculus [1]; reproduction developmental, duration: 18 days, diet, F, CD1): > 191 mg/kg-day
NOAEL (Mus musculus [1]; reproduction developmental, diet, F, CD1): > 191 mg/kg-day
LOAEL (Mus musculus [1]; [13]): ≥ 1000 mg/kg-day and ≤ 1500 mg/kg-day
LOAEL (% diet) (Mus musculus [1]; [13]): ≥ 0.66 and ≤ 1.32
NOAEL (% diet) (Mus musculus [1]; [13]): ≥ 0.44 and ≤ 0.66
NOAEL (Mus musculus [1]; short-term, duration: 11 days, diet, F, B6C3F1): 2650 mg/kg-day and 1000 mg/kg-day
NOAEL (Mus musculus [1]; short-term, duration: 11 days, gavage, B6C3F1): 100 mg/kg-day
LOAEL (Mus musculus [1]; [14]): ≥ 250 mg/kg-day and ≤ 500 mg/kg-day
NOAEL (Mus musculus [1]; [14]): ≥ 125 mg/kg-day and ≤ 250 mg/kg-day
NOAEL (Mus musculus [1]; subchronic, duration: 3 months, gavage, F, B6C3F1): 250 mg/kg-day
NOAEL (Mus musculus [1]; subchronic, duration: 3 months, gavage, M, B6C3F1): 125 mg/kg-day
LD50 (Oryctolagus sp.; dermal): > 2600 mg/kg and 1980 mg/kg
LD50 (Oryctolagus sp.; oral): 1180 mg/kg and 1470 mg/kg
LD50 (Rattus norvegicus [2]; acute, dermal): > 3000 mg/kg
LD50 (Rattus norvegicus [2]; acute, oral, gavage, albino): 7000 mg/kg
NOAEL (Rattus norvegicus [2]; developmental, dermal, occlusive, Fischer 344): > 2520 mg/kg-day
NOAEL (Rattus norvegicus [2]; developmental, duration: 10 days, dermal, occlusive, Fischer 344): > 2520 mg/kg-day
NOAEL (Rattus norvegicus [2]; developmental, oral, gavage, Wistar): 650 mg/kg-day
NOAEL (Rattus norvegicus [2]; repeat dose other, inhalation, Wistar): 0.648 mg/L and 0.32 mg/L
NOAEL (% diet) (Rattus norvegicus [2]; repeat dose other, oral, diet, Fischer 344): 0.46
LOAEL (Rattus norvegicus [2]; repeat dose other, oral, gavage, Fischer 344): 100 mg/kg-day
NOAEL (Rattus norvegicus [2]; reproduction developmental, duration: 10 days, oral, gavage, F, Wistar): 130 mg/kg-day
NOAEL (Rattus norvegicus [2]; reproduction developmental, oral, gavage, F, Wistar): 130 mg/kg-day
NOAEL (Rattus norvegicus [2]; short-term, duration: 9 days, oral, drinking water, Fischer 344): 636 ppm
LOAEL (Rattus norvegicus [2]; [15]): 100 mg/kg-day
NOAEL (Rattus norvegicus [2]; [15]): 83 mg/kg-day
NOAEL (Rattus norvegicus [2]; short-term, duration: 14 days, inhalation, Wistar): 0.32 mg/L
LOAEL (Rattus norvegicus [2]; short-term, duration: 21 days, oral, gavage, Fischer 344): 100 mg/kg-day
LOAEL (% diet) (Rattus norvegicus [2]; [16]): 0.25
NOAEL (% diet) (Rattus norvegicus [2]; [16]): 0.05
LOAEL (Rattus norvegicus [2]; [17]): 250 mg/kg-day
NOAEL (Rattus norvegicus [2]; [17]): 125 mg/kg-day and ≤ 250 mg/kg-day
NOAEL (Rattus norvegicus [2]; subchronic, duration: 13 weeks, oral, gavage): 250 mg/kg-day

SMILES: Nc1ccc(-c2ccc(N)cc2)cc1 [C.I. Azoic Diazo Component 112]
LOAEL (Mus musculus [5]; chronic, duration: 33 months, drinking water, Brain: Cellular changes + Liver: Cellular changes): 2.7 mg/kg-day
LOAEL (Mus musculus [6]; Brain cell vacuolization + liver cell alterations in females): 2.7 mg/kg-day

SMILES: CCN(CC)c1nc(C)cc(OP(=S)(OC)OC)n1 [Pirimiphos-methyl]
NOEL (Homo sapiens [7]; duration: 28 days, M, Borderline ChE depression): 0.25 mg/kg-day
NOEL (Homo sapiens [7]; duration: 56 days, M/F, Transient plasma ChE depression): 0.25 mg/kg-day

SMILES: CC(C)NCC(O)COc1cccc2[nH]c3ccccc3c12 (stereo unspecified) [Carazolol]
NOEL (Homo sapiens [8]): 0.0005 mg/kg-day

SMILES: O=C1OC(=O)c2ccccc21 [Phthalic anhydride]
LOAEL (Mus musculus [5]; chronic, duration: 104 weeks, diet, Kidney: Histopathology + Lung: Histopathology): 1560 mg/kg-day
LOAEL (Mus musculus [6]; lung and kidney histopathology): 1560 mg/kg-day

LEL (Rattus norvegicus [11]): 46.5 mg/kg-day
SMILES: Oc1ccccc1Cc1ccccc1O [2,2'-Bisphenol F]
LOEL (Cavia porcellus [9]; BALF eosinophil peroxidase activity + BALF histamine activity + BALF total leukocytes + specific airway resistance (sRaw) - immediate …): 12.5 mg/kg-day
LOEL (Cavia porcellus [9]; BALF phospholipase A2 activity): 50 mg/kg-day
NOEL (Cavia porcellus [9]; BALF phospholipase A2 activity): 25 mg/kg-day
LOEL (Rattus norvegicus [10]): 200 mg/kg-day
NOEL (Rattus norvegicus [10]): 20 mg/kg-day

SMILES: O=CC(Cl)(Cl)Cl [Chloral]
LOAEL (Mus musculus [5]; subchronic, duration: 90 days, drinking water, Liver: Effects): 15.7 mg/kg-day

SMILES: [CH3][Hg][Cl] [Methylmercuric(II) chloride]
LOAEL (Neovison sp.): 0.025 mg/kg-day
NOAEL (Neovison sp.): 0.015 mg/kg-day
LOAEL (Rattus norvegicus [12]): 0.16 mg/kg-day
NOAEL (Rattus norvegicus [12]): 0.032 mg/kg-day
